Consider five compounds from US20180105546A1, “Methods for Chemical Synthesis of Biologically Active Compounds Using Supramolecular Protective Groups and Novel Compounds Obtainable Thereby” (Rijksuniversiteit Groningen, priority 2011, published 2018).

“Also recorded” adds a separate entry of the source.

The test system of test [1] is E. coli ATCC 25922. The experiment in a line: Kirby-Bauer disk test (zone of inhibition). The class given is cell-based. The settings on record: amount 17.5 nmol per disk, HFBA salts except 1* (sulphate). Here is the method: Antibiotic disks preparation. Paper disks (6 mm diameter, BBL Microbiology Systems) were wetted through with 20, 25, 30 and 35 μL of a solution containing the antibiotic sample at a concentration of 0.5 nmol/μL. The wet disks were dried in a desiccator overnight, and used the next day.
Culture preparation. A colony picked from a freshly made plate of the bacteria strain E. coli ATCC 25922 was used to inoculate 20 mL of Mueller-Hinton broth and the obtained culture was grown overnight at 37° C. and 250 RPM shaking.
Kirby-Bauer test procedure. A new culture was made adding 1 mL of overnight culture in 99 mL of fresh Mueller-Hinton broth. The culture was grown at 37° C. and 250 RPM shaking until it reached an OD600 of 0.132 (0.5 McFarland) and a series of Mueller-Ilinton-Agar plates preheated at 37° C. were inoculated spreading 200 μL of that culture with sterile cotton. The plates were then dried for 30 minutes. Then on each plate 3 or 4 antibiotic paper disks were placed. The plates were incubated overnight at 37° C. and subsequently the diameter of the inhibition growth zone was measured.

In test [2] the test system is E. coli ATCC 25922. The experiment in a line: Minimum Inhibitory Concentration (MIC) test. The class given is cell-based. Conditions: for MIC: E. coli ATCC 25922, Mueller-Hinton broth, overnight 37° C., HFBA salts except 1* (sulphate); for antimicrobial activity against E. coli ATCC 25922 (in words): Kirby-Bauer Disk Test and MIC, summary statement. Here is the method:
All test solutions contained 40 nmol of antibiotic. After drying, the samples were resuspended in 100 μL of Mueller-Hinton broth. Each solution of antibiotic in broth media was pipetted in the first lane of a 96 well plate (volume of well 500 μL). The remaining lanes were filled with 50 μL of E. coli ATCC 25922 culture with an OD600 of 0.264. Series of 2-fold dilution were made removing from the first lane 50 μL of the antibiotic solution and resuspending it with the culture contained in the next well. At the end, all wells were filled with 100 μL of E. coli ATCC 25922 culture in Mueller-Hinton with an OD600 of 0.132 (0.5 McFarland) and the appropriate amount of antibiotic. The 96-well plates were incubated overnight at 37° C. and 350 RPM shaking.

Regarding `NCC1OC(OC2C(CO)OC(OC3C(O)C(N)CC(N)C3OC3OC(CN)C(O)C(O)C3N)C2O)C(N)C(O)C1O.O=C(O)C(F)(F)C(F)(F)C(F)(F)F.O=C(O)C(F)(F)C(F)(F)C(F)(F)F.O=C(O)C(F)(F)C(F)(F)C(F)(F)F.O=C(O)C(F)(F)C(F)(F)C(F)(F)F.O=C(O)C(F)(F)C(F)(F)C(F)(F)F.O=C(O)C(F)(F)C(F)(F)C(F)(F)F` (centres unmarked) [1^, neomycin B×6 HFBA, reference compound], in the test on E. coli ATCC 25922 [1], the “Diameter (zones of inhibition as determined by Kirby-Bauer disk method)” value is 16.1 mm. Besides, the MIC with E. coli ATCC 25922 [2] came to 3.1 µM.

As to `NC[C@@H]1O[C@H](O[C@H]2[C@@H](O)[C@H](O[C@@H]3[C@@H](O)[C@H](N)C[C@H](N)[C@H]3O[C@H]3O[C@H](CO)[C@@H](O)[C@H](O)[C@H]3N)O[C@@H]2CO)[C@H](N)[C@@H](O)[C@@H]1O` [2^, paromomycin, reference compound], in the test on E. coli ATCC 25922 [1], the “Diameter (zones of inhibition as determined by Kirby-Bauer disk method)” value is 13.2 mm. Also, the minimal inhibitory concentration (MIC) in the test with E. coli ATCC 25922 [2] (Escherichia coli, ATCC25922) is 12.5 µM.

Regarding `CC(=O)NCC1O[C@H](OC2C(O)[C@H](OC3C(O)[C@H](N)CC(N)[C@H]3O[C@H]3OC(CN)[C@@H](O)C(O)C3N)O[C@@H]2CO)C(N)C(O)[C@@H]1O` (some centres unmarked) [5a, N^6(VI)-acetyl neomycin B], in the test with E. coli ATCC 25922 [1], the “Diameter (zones of inhibition as determined by Kirby-Bauer disk method)” value amounted to 13.9 mm. In addition, the MIC with E. coli ATCC 25922 [2] (Escherichia coli, ATCC25922) worked out at 6.3 µM. The “antimicrobial activity against E. coli ATCC 25922 (in words)” value in the test on E. coli ATCC 25922 [2] was “still highly active”.

Take `CC(C)C(=O)NCC1O[C@H](OC2C(O)[C@H](OC3C(O)[C@H](N)CC(N)[C@H]3O[C@H]3OC(CN)[C@@H](O)C(O)C3N)O[C@@H]2CO)C(N)C(O)[C@@H]1O` (some centres unmarked) [compound 6]: the “Diameter (zones of inhibition as determined by Kirby-Bauer disk method)” value in the test on E. coli ATCC 25922 [1] came out at 11.5 mm. For the same compound, the MIC in the test with E. coli ATCC 25922 [2] (Escherichia coli, ATCC25922) is 12.5 µM. Further, the “antimicrobial activity against E. coli ATCC 25922 (in words)” value in the test with E. coli ATCC 25922 [2] is listed as “still highly active; also recorded: same biological activity as paromomycin 2”.

On to “neomycin B [compound 1, reference compound]”, for which the MIC in the test on E. coli ATCC 25922 [2] came to 3.1 µM.

The term MIC denotes the lowest concentration found to suppress growth.
